Measurements taken from US20240059688A1, “CONOLIDINE ANALOGUES AS SELECTIVE ACKR3 MODULATORS FOR THE TREATMENT OF CANCER” (Luxembourg Institute of Health (LIH), priority 2020, published 2024).

Tests used:
Format in all cases: cell-based
[1] = target: T1, NOP (Homo sapiens, UniProt P41146); test: NanoBiT-based β-arrestin-2 recruitment assay, NOP; conditions: concentration range 0.15 nM to 80 μM; reference Nociceptin
T1 construct: expressed in transfected cells; host or cells: U87
Description: (§1) The ability of the different molecules to activate the four opioid receptors MOR, DOR, KOR and NOP that are known to mediate in vivo analgesic effects was tested using the NanoBiT-based β-arrestin-2 recruitment assay in a concentration range of 0.15 nM to 80 μM. For each of these receptors a reference ligand corresponding to an endogenous opioid peptide i.e. Met-enkephalin, BAM22, Dynorphin A and Nociceptin, respectively was included.
(§2) Ligand-induced β-arrestin recruitment to chemokine and opioid receptors was monitored by NanoLuc complementation assay (NanoBiT, Promega). In brief, 1.2×10^6 U87 cells were plated in 10-cm culture dishes and 48 hours later co-transfected with pNBe vectors encoding GPCRs (ACKR3, MOR, DOR, KOR, or NOP) C-terminally tagged with SmBiT and human β-arrestin-1 (arrestin-2) or β-arrestin-2 (arrestin-3) N-terminally fused to LgBiT. 48 hours post-transfection cells were harvested, incubated 25 minutes at 37° C. with Nano-Glo Live Cell substrate diluted 200-fold and distributed into white 96-well plates (5×10^4 cells per well). Ligand-induced, β-arrestin to GPCRs was evaluated with a Mithras LB940 luminometer (Berthold Technologies, running on MicroWin 2010 5.19 software (Mikrotek Laborsysteme)) for 20 minutes.
(§3) For concentration-response curves (FIG. 2), the signal recorded with a saturating concentration of full agonist for each receptor was set as 100%. […]

[2] = target: T2, mouse ACKR3 (Mus musculus, UniProt P56485); test: NanoBiT-based β-arrestin-2 recruitment assay, mouse ACKR3 in U87 cells; conditions: for agonist efficacy at mACKR3 compared to CXCL-12: NanoBiT β-arrestin-2 recruitment, reference ligand CXCL-12; for EC50: NanoBiT, U87 cells, FIG. 1 section C, read-out: EC50, β-arrestin-2 recruitment to mouse receptor (mACKR3)
T2 construct: expressed in transfected cells; host or cells: U87
T2 sequence (P56485 whole entry): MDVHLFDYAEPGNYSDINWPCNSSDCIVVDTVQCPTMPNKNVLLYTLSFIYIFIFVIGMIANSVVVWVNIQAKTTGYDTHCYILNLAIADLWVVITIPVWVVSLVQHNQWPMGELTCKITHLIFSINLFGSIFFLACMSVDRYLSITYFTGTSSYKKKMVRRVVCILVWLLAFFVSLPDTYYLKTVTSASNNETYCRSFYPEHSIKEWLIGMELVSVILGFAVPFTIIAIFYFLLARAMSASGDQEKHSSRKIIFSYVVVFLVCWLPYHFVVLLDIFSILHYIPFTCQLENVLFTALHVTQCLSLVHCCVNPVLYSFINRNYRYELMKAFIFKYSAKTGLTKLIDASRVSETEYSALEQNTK
T2 sequence (P32121 whole entry partner): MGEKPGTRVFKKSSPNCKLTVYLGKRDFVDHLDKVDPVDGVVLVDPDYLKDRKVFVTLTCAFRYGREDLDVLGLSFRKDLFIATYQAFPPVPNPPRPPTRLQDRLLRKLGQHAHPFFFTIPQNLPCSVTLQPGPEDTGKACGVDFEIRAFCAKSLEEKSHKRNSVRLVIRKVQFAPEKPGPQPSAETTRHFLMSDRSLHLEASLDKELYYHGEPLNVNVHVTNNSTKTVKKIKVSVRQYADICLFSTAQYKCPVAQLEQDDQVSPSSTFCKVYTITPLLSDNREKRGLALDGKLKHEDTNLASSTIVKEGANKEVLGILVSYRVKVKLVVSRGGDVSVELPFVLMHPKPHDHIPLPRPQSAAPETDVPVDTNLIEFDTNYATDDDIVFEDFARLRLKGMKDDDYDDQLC
Description: Concentration-response studies were performed with molecules WW-1 (conolidine) and WW-12 on the human and mouse ACKR3 receptors in U87 cells using a NanoBiT-based β-arrestin-2 recruitment assay […] to evaluate their efficacy and potency towards the two receptors.
as §2
For concentration-response curves (FIG. 2), the signal recorded with a saturating concentration of full agonist for each receptor was set as 100%. To evaluate the antagonist properties of ligands, full agonists of each receptor (50 nM BAM22 for MOR, 50 nM dynorphin A for KOR, 70 nM met-enkephalin for DOR, 70 nM nociceptin for NOP and 4 nM CXCL12 for ACKR3) were added after the 20-minute incubation with the ligands.

[3] = target: DOR (Homo sapiens, UniProt P41143); test: NanoBiT-based β-arrestin-2 recruitment assay, DOR; set-up: expressed in transfected cells; host or cells: U87; conditions: concentration range 0.15 nM to 80 μM; reference Met-enkephalin
Sequence of DOR (P41143 whole entry): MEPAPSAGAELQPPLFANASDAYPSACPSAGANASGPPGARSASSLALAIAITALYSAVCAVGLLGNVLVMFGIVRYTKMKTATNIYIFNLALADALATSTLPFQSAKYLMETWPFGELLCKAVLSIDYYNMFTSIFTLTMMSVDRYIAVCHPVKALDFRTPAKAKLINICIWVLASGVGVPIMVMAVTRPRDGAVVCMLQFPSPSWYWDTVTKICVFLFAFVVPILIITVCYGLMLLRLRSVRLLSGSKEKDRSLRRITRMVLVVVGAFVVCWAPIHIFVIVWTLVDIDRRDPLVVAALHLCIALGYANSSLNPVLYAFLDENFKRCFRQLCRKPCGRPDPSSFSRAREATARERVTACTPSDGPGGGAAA
Description: as §1, §2, §3

[4] = target: T3, CaV 3.2 (Homo sapiens, UniProt O95180); test: CaV 3.2 calcium assay in stable human CaV3.2-HEK293 cells; conditions: control agonist calcium chloride
T3 construct: expressed in transfected cells
T3 sequence (O95180 whole entry): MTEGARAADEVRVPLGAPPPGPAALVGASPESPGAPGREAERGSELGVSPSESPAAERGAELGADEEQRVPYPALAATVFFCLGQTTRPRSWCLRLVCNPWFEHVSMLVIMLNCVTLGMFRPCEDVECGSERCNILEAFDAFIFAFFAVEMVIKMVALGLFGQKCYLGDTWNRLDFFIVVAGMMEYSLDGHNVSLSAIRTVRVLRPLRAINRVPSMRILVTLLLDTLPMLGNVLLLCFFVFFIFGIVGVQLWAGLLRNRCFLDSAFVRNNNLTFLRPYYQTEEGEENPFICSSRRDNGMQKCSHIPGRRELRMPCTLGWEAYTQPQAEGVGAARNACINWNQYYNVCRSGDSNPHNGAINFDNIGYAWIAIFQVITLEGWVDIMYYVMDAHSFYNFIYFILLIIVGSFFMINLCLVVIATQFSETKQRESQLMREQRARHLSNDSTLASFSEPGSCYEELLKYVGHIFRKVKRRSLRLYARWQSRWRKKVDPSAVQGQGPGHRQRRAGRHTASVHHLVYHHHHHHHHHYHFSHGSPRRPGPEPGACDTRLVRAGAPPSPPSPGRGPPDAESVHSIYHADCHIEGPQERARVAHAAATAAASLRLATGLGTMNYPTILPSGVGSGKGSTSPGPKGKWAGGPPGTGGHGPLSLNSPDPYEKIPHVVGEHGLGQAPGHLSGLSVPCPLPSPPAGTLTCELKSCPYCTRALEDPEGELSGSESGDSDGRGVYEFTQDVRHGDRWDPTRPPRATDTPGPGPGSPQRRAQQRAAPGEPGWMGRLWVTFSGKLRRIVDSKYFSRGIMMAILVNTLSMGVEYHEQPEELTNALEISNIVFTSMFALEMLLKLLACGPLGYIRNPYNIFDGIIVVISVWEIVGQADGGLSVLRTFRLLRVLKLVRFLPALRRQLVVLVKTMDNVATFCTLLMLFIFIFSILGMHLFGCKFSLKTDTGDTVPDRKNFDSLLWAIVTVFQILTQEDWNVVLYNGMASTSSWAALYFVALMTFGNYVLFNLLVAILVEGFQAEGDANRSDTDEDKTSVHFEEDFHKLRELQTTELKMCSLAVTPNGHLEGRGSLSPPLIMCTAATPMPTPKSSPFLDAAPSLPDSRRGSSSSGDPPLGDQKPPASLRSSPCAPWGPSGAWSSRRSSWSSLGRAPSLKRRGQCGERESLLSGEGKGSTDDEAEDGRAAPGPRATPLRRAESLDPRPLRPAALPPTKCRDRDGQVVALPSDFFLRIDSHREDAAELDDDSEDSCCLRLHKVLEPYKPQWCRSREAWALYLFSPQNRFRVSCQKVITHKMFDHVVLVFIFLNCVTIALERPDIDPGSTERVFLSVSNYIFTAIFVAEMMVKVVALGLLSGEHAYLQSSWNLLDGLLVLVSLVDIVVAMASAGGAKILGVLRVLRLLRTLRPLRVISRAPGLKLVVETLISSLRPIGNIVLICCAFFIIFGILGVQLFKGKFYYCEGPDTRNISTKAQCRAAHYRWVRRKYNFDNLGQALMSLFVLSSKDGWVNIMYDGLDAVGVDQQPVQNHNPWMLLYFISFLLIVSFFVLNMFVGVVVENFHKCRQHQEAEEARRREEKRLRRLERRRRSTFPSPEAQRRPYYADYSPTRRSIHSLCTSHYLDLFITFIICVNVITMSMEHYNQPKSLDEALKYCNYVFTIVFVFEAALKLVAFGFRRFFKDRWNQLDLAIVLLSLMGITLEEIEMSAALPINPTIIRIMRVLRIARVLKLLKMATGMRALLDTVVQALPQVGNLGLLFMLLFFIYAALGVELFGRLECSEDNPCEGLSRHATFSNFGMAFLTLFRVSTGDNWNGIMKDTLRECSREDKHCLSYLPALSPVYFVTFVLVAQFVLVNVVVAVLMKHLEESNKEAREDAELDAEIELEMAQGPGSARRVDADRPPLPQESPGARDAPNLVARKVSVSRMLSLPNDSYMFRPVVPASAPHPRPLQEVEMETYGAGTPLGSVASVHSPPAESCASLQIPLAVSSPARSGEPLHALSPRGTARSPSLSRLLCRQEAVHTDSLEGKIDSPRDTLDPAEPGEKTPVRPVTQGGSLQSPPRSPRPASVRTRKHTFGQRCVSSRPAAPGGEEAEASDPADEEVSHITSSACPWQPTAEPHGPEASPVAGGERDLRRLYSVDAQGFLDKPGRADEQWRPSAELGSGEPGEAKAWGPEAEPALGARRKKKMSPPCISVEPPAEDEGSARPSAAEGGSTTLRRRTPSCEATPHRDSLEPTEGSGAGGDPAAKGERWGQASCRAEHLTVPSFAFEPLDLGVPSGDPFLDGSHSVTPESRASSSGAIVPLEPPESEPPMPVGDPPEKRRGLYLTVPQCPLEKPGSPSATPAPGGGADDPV
Description: Compounds were evaluated for kappa (KOR), mu (MOR), and delta (DOR) opioid receptor agonist and antagonist activity in three individual cell lines overexpressing Gαq16 (CHO-RD-HGA16, Molecular Devices) and the human kappa, mu, and delta opioid receptors, respectively. The day before the assay, cells were plated into 96-well black-walled assay plates at 30,000 cells/well in Ham's F12 supplemented with 10% fetal bovine serum, and 100 units of penicillin and streptomycin. The cells were incubated overnight at 37° C., 5% CO2. Prior to the assay, Calcium 5 dye (Molecular Devices) was reconstituted according to the manufacturer's instructions. The reconstituted dye was diluted 1:40 in pre-warmed (37° C.) assay buffer (1×HBSS, 20 mM HEPES, 2.5 mM probenecid, pH 7.4 at 37° C.). Growth medium was removed and the cells were gently washed with 100 μL of pre-warmed (37° C.) assay buffer. The cells were incubated for 45 minutes at 37° C., 5% CO2 in 200 μL of the diluted Calcium 5 dye. For the agonist screen, a single concentration of each test compound and receptor-specific controls (U69,593, DAMGO, and DPDPE for KOR, MOR, and DOR, respectively) were prepared at 10× the desired final concentration in 1% DMSO/assay buffer, aliquoted into a 96-well polystyrene plate, and warmed to 37° C. After the dye-loading incubation period, pretreatment solution was added to each well (25 μL of 9% DMSO/assay buffer) and, after 15 min, the plate was read with a FlexStation II (Molecular Devices). Calcium-mediated changes in fluorescence were monitored every 1.52 seconds over a 60 second time period, with the FlexStation II adding 50 μL of test compounds at the 19 second time point (excitation at 485 nm, detection at 525 nm). Peak kinetic reduction (SoftMax, Molecular Devices) relative fluorescence units (RFU) were used to calculate % control agonist Emax with the equation % Emax=(test compound RFU/control agonist RFU)×100. For the antagonist screens, the same procedure was followed except that the pretreatment solution consisted of the test compounds (prepared at […] the desired final concentration in 9% DMSO/assay buffer) and the FlexStation added the EC60 concentration (prepared at 10× the desired final concentration in 1% DMSO/assay buffer) of each respective control agonist. Peak RFU were used to calculate % control EC60 inhibition with the equation % inhibition=((EC60 RFU−test compound RFU)/EC60 RFU)×100. When IC50 determinations were made, the same antagonist screen procedure was followed except that cells were pretreated with 8-pt concentration-response curves of the test compounds. Peak RFU were plotted against the log of compound concentration using non-linear regression analysis to generate IC50 values (GraphPad Prism). Each test sample was analyzed in duplicate in two independent experiments.
Compounds were evaluated for activity at CaV 3.2 using stable human CaV3.2-HEK293 cells and the control agonist calcium chloride. The day before the assay, cells were plated into 96-well black-walled assay plates coated with poly-D-lysine in DMEM-F12 supplemented with 10% fetal bovine serum, 100 units penicillin/streptomycin, and 500 μM sodium pyruvate, and incubated at 37° C., 5% CO2 overnight. Prior to the assay, Calcium 5 dye (Molecular Devices) was reconstituted according to the manufacturer instructions. The reconstituted dye was diluted 1:10 in pre-warmed (37° C.) assay buffer (1×HBSS, […], […], pH 7.4 at 37° C.). The cells were incubated for 45 minutes at 37° C., 5% CO2 in 200 μL of the diluted Calcium 5 dye. Compounds were prepared as described above and the plate was read with a FLIPR Tetra (Molecular Devices). Calcium-mediated changes in fluorescence were monitored every 1 second over a 60 second time period, with the Tetra adding 25 μL of appropriate compound at the 10 second time point (excitation at 470-495 nm, detection at 515-575 nm). […]

T1 sequence (P41146 whole entry): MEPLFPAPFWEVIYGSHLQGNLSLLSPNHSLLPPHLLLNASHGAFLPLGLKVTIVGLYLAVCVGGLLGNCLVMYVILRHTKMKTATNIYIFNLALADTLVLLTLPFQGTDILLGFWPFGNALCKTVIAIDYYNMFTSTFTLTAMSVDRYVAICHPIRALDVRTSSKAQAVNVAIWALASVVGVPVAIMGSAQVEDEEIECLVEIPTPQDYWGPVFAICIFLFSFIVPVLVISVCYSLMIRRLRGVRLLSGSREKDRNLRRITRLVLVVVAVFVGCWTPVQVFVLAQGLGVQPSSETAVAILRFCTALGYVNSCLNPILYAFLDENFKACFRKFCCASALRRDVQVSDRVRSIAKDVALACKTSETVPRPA

SMILES	activation of NOP (β-arrestin-2 recruitment) [1]	agonist efficacy at mACKR3 compared to CXCL-12 [2]	EC50 [2] [µM]	activation of DOR (β-arrestin-2 recruitment) [3]	CaV 3.2 % CaCl2 Inhibition [4] [%]
C/C=C1/CN(CCCCC)CC[C@H]1C(=O)c1cc2ccccc2[nH]1 [WW-12, [(3E,4R)-3-ethylidene-1-pentylpiperidin-4-yl](1H-indol-2-yl)methanone]	not active	full agonists	0.9	not active	42
C/C=C1/CN2CC[C@H]1C(=O)c1[nH]c3ccccc3c1C2 [WW-1, (4E,5R)-4-ethylidene-1,4,5,7-tetrahydro-2,5-ethanoazocino[4,3-b]indol-6(3H)-one]	not active	full agonists	22	not active	−7
